US20220279826A1, “OFF-FLAVOR SUPPRESSING AGENT” (AJINOMOTO CO., INC., priority 2019, published 2022)

Assay: Sensory evaluation of off-taste suppressing effect in 0.8 wt % potassium chloride aqueous solution (Experimental Examples 1 and 2)
Experimental: Each compound shown in the following Tables 1 to 13 was added to a 0.8 wt % potassium chloride aqueous solution at the concentration (addition concentration) shown in the following Tables 1 to 13 to prepare each evaluation sample.
Based on the following evaluation criteria, a panel of two experts determined by consensus the intensity of off-tastes (bitter taste, metallic taste, harsh taste, astringent taste) derived from potassium chloride in each evaluation sample, by reference to each potassium chloride aqueous solution adjusted to 0.8 wt %, 0.75 wt %, 0.7 wt %, or 0.65 wt %.
−: intensity of the same level as potassium chloride aqueous solution with potassium chloride concentration of not less than 0.8 wt %
+: intensity of the same level as potassium chloride aqueous solution with potassium chloride concentration of not less than 0.75 wt % and less than 0.8 wt %
++: intensity of the same level as potassium chloride aqueous solution with potassium chloride concentration of not less than 0.7 wt % and less than 0.75 wt %
+++: intensity of the same level as potassium chloride aqueous solution with potassium chloride concentration of not less than 0.65 wt % and less than 0.7 wt %
Each compound shown in the following Table 14 was added to a 0.8 wt % potassium chloride aqueous solution at the concentration (addition concentration) shown in the following Table 14 to prepare each evaluation sample.

[1] = 0.8 wt % potassium chloride aqueous solution, addition concentration 100 weight ppb (12.5 weight ppm with respect to potassium chloride)
[2] = in words, potassium chloride aqueous solutions, Tables 1 to 14
[3] = potassium chloride aqueous solutions, Tables 1 to 14
[4] = 0.8 wt % potassium chloride aqueous solution, addition concentration 10 weight ppb (1.25 weight ppm with respect to potassium chloride)
[5] = 0.8 wt % potassium chloride aqueous solution, addition concentration 50 weight ppb (6.25 weight ppm with respect to potassium chloride)
[6] = 0.8 wt % potassium chloride aqueous solution, addition concentration 500 weight ppb (62.5 weight ppm with respect to potassium chloride)
[7] = 0.8 wt % potassium chloride aqueous solution, addition concentration 1000 weight ppb (125 weight ppm with respect to potassium chloride)

Compound	off-taste suppressing effect [1]	off-taste suppressing effect [2]	intensity of off-tastes (bitter taste, metallic taste, harsh taste, astringent taste) derived from potassium chloride [3]	off-taste suppressing effect (0.8 wt % potassium chloride aqueous solution, addition concentration 1 weight ppb (0.125 weight ppm with respect to potassium chloride))	off-taste suppressing effect (0.8 wt % potassium chloride aqueous solution, addition concentration 5 weight ppb (0.625 weight ppm with respect to potassium chloride))	off-taste suppressing effect [4]	off-taste suppressing effect [5]	off-taste suppressing effect [6]	off-taste suppressing effect [7]
CCc1ccco1 [2-ethylfuran, reference compound]	− (intensity of the same level as potassium chloride aqueous solution with potassium chloride concentration of not less than 0.8 wt %)	could not be confirmed	did not show changes	–	–	–	–	–	–
CCCCCc1ccco1 [2-pentylfuran, reference compound]	− (intensity of the same level as potassium chloride aqueous solution with potassium chloride concentration of not less than 0.8 wt %)	could not be confirmed	did not show changes	–	–	–	–	–	–
CCC1OC(=O)C(O)=C1C (stereo not shown) [5-ethyl-3-hydroxy-4-methyl-2(5H)-furanone, reference compound]	− (intensity of the same level as potassium chloride aqueous solution with potassium chloride concentration of not less than 0.8 wt %)	could be hardly confirmed	–	− (intensity of the same level as potassium chloride aqueous solution with potassium chloride concentration of not less than 0.8 wt %)	+ (intensity of the same level as potassium chloride aqueous solution with potassium chloride concentration of not less than 0.75 wt % and less than 0.8 wt %)	+ (intensity of the same level as potassium chloride aqueous solution with potassium chloride concentration of not less than 0.75 wt % and less than 0.8 wt %)	− (intensity of the same level as potassium chloride aqueous solution with potassium chloride concentration of not less than 0.8 wt %)	− (intensity of the same level as potassium chloride aqueous solution with potassium chloride concentration of not less than 0.8 wt %)	− (intensity of the same level as potassium chloride aqueous solution with potassium chloride concentration of not less than 0.8 wt %)
CCC1=C(O)C(=O)C(C)O1 (stereo not shown) [5-ethyl-4-hydroxy-2-methyl-3(2H)-furanone, reference compound]	− (intensity of the same level as potassium chloride aqueous solution with potassium chloride concentration of not less than 0.8 wt %)	could be hardly confirmed	–	–	–	− (intensity of the same level as potassium chloride aqueous solution with potassium chloride concentration of not less than 0.8 wt %)	+ (intensity of the same level as potassium chloride aqueous solution with potassium chloride concentration of not less than 0.75 wt % and less than 0.8 wt %)	–	–
CC(=O)O [acetic acid, reference compound]	–	could not be confirmed	did not show changes	–	–	–	–	–	− (intensity of the same level as potassium chloride aqueous solution with potassium chloride concentration of not less than 0.8 wt %)
CCCC(=O)O [butyric acid]	− (intensity of the same level as potassium chloride aqueous solution with potassium chloride concentration of not less than 0.8 wt %)	–	decreased	–	–	–	–	+ (intensity of the same level as potassium chloride aqueous solution with potassium chloride concentration of not less than 0.75 wt % and less than 0.8 wt %)	+ (intensity of the same level as potassium chloride aqueous solution with potassium chloride concentration of not less than 0.75 wt % and less than 0.8 wt %)
O=CO [formic acid, reference compound]	–	could not be confirmed	did not show changes	–	–	–	–	–	− (intensity of the same level as potassium chloride aqueous solution with potassium chloride concentration of not less than 0.8 wt %)
